Among the data in ChEMBL document CHEMBL3351836, “Inhibition of carbonic anhydrase isoforms I, II, IX and XII with novel Schiff bases: identification of selective inhibitors for the tumor-associated isoforms over the cytosolic ones” (Bioorg Med Chem, 2014) are Ki values, retold here.

In the experiment the target is Carbonic anhydrase 9 (Homo sapiens, UniProt Q16790). Description: Inhibition of human CA-9 after 15 mins by stopped-flow CO2 hydration method.

A word on the Ki: it is a dissociation constant, usually derived from enzyme kinetics or from competition with a known ligand. A low value points to tighter binding.

Regarding `NS(=O)(=O)c1ccc(/N=C/c2ccc(Br)cc2O)cc1`, the affinity, expressed as Ki, was 28.1 nM.

The compound `NS(=O)(=O)c1ccc(/N=C/c2ccc(-c3ccccn3)cc2)cc1` displayed an inhibitory constant (Ki) of 162 nM.

In turn, `NS(=O)(=O)c1ccc(/N=C/c2csc3ccccc23)cc1` had a Ki of 197 nM.

As to `NS(=O)(=O)c1ccc(/N=C/c2ccco2)c(F)c1`, the affinity, expressed as Ki, was 165 nM.

Take `NS(=O)(=O)c1ccc(/N=C/c2ccc(-c3ccccc3)cc2)c(F)c1`: the affinity, expressed as Ki, was 113 nM.

In turn, `NS(=O)(=O)c1ccc(CC/N=C/c2ccc(-c3ccccc3)cc2)cc1` displayed a Ki of 244 nM.

`NS(=O)(=O)c1ccc(CC/N=C/c2ccc(S(=O)(=O)O)o2)cc1` came in with a Ki of 193 nM.

Regarding `NS(=O)(=O)c1ccc(CC/N=C/c2cccc(Br)c2O)cc1`, the affinity, expressed as Ki, was 251 nM.

In the case of `COc1ccc(/C=N/CCc2ccc(S(N)(=O)=O)cc2)c(O)c1`, the inhibition constant (Ki) was found to be 1870 nM.

The compound `NS(=O)(=O)c1ccc(CC/N=C/c2ccc(Br)cc2O)cc1` returned an inhibition constant (Ki) of 106 nM.

Turning to `COc1cc([N+](=O)[O-])ccc1/C=N/CCc1ccc(S(N)(=O)=O)cc1`, the inhibition constant (Ki) was found to be 154 nM.

Compound `NS(=O)(=O)c1ccc(CC/N=C/c2ccc(-c3ccccn3)cc2)cc1` returned an inhibition constant Ki of 27.9 nM.

As for `CSc1ccc(/C=N/CCc2ccc(S(N)(=O)=O)cc2)cc1`, affinity was put at a Ki of 23.6 nM. The Ki values of the last two compounds are within 1.5-fold of each other.

`N#Cc1ccc(/C=N/CCc2ccc(S(N)(=O)=O)cc2)cc1` returned an inhibition constant Ki of 18.5 nM.

On to `NS(=O)(=O)c1ccc(CC/N=C/c2c[nH]c3ccc(Br)cc23)cc1`, for which affinity was put at a Ki of 1880 nM.

As for `NS(=O)(=O)c1ccc(CC/N=C/c2c(F)c(F)cc(F)c2F)cc1`, the Ki came to 213 nM.
